# From patent publication US20240269139A1, “COMPOUNDS FOR TARGETED PROTEIN DEGRADATION OF KINASES” (DANA-FARBER CANCER INSTITUTE, INC., priority 2020, published 2024)
# Values joined by “and” are separate entries in the source; they are usually repeats but may differ in a detail not shown here. Identical values can stand only once. Like-named read-outs stand apart in the source and are kept apart here.
# Legend:
# Format in all cases: cell-based
# [1] = molecular target: T1, protein kinases (human kinome) (Homo sapiens, UniProt O14976)
# T1 sequence (O14976 1-1311): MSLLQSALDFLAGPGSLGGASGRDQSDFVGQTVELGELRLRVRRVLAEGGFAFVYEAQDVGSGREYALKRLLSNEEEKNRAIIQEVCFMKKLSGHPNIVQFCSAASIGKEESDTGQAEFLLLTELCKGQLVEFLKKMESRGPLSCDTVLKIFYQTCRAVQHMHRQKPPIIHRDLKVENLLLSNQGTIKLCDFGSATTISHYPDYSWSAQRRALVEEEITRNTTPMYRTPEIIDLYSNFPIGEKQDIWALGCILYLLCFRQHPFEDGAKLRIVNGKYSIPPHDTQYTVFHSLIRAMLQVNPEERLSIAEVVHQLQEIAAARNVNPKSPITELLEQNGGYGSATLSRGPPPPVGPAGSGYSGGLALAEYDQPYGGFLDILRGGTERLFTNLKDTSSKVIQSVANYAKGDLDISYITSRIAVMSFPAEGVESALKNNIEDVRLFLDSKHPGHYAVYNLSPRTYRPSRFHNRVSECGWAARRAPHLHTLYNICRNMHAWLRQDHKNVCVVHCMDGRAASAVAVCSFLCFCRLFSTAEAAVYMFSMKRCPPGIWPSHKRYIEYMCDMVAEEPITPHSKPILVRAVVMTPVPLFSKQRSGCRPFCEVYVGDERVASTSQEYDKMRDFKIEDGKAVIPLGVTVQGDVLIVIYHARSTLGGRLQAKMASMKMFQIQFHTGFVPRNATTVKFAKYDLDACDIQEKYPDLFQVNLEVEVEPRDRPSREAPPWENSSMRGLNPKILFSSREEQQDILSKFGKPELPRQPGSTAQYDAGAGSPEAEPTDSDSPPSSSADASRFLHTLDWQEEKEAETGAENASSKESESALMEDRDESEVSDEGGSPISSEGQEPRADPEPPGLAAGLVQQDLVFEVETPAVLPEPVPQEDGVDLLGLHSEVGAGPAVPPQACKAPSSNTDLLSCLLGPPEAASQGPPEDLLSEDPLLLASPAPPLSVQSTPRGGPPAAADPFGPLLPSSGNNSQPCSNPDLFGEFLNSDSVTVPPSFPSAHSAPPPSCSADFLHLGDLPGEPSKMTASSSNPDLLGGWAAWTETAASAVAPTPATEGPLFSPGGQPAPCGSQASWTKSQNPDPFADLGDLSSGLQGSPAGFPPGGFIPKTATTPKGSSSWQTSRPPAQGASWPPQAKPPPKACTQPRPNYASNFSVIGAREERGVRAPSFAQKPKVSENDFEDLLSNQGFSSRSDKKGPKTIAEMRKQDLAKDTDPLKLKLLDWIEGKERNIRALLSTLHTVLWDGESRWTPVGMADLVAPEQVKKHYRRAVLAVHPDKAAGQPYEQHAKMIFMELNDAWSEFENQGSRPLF
# [2] = molecular target: protein kinases (human kinome) (Homo sapiens, UniProt Q9H0K1); conditions: for logFC of SIK2: Accession Q9H0K1; for logFC SIK2 (Q9H0K1): direction of change down; for logFC SIK2: SIK2 (Q9H0K1), down
# Sequence of protein kinases (human kinome) (Homo sapiens, UniProt Q9H0K1) (Q9H0K1 whole entry): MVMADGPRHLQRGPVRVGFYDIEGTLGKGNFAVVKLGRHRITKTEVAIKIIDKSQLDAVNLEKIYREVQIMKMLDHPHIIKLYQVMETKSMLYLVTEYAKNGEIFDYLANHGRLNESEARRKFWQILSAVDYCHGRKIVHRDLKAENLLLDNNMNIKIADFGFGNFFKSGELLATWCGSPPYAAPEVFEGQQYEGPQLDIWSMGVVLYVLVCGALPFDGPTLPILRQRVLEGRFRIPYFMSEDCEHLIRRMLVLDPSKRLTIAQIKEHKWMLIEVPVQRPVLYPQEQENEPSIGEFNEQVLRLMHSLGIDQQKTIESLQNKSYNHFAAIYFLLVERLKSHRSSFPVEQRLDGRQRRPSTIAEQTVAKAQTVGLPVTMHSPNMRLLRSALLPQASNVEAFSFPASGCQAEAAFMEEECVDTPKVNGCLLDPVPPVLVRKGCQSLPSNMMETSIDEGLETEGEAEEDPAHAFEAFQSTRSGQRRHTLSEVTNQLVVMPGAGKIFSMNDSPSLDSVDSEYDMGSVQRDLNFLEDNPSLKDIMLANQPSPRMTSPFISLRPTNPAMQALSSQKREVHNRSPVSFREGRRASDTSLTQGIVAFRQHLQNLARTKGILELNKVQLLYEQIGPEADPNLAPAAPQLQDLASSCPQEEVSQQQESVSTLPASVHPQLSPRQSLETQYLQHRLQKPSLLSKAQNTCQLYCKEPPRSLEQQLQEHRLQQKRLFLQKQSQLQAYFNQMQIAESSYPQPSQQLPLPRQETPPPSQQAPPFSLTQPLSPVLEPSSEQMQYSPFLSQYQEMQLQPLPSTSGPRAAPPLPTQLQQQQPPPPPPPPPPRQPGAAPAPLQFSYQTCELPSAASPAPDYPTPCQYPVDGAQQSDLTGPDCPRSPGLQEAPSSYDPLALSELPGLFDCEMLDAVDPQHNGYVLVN
# [3] = molecular target: T2, protein kinases (human kinome) (Homo sapiens, UniProt O75385); conditions: for logFC: ULK1 (O75385) protein abundance, degrader vs DMSO, down; for logFC ULK1: ULK1 O75385
# T2 sequence (O75385 1-1050): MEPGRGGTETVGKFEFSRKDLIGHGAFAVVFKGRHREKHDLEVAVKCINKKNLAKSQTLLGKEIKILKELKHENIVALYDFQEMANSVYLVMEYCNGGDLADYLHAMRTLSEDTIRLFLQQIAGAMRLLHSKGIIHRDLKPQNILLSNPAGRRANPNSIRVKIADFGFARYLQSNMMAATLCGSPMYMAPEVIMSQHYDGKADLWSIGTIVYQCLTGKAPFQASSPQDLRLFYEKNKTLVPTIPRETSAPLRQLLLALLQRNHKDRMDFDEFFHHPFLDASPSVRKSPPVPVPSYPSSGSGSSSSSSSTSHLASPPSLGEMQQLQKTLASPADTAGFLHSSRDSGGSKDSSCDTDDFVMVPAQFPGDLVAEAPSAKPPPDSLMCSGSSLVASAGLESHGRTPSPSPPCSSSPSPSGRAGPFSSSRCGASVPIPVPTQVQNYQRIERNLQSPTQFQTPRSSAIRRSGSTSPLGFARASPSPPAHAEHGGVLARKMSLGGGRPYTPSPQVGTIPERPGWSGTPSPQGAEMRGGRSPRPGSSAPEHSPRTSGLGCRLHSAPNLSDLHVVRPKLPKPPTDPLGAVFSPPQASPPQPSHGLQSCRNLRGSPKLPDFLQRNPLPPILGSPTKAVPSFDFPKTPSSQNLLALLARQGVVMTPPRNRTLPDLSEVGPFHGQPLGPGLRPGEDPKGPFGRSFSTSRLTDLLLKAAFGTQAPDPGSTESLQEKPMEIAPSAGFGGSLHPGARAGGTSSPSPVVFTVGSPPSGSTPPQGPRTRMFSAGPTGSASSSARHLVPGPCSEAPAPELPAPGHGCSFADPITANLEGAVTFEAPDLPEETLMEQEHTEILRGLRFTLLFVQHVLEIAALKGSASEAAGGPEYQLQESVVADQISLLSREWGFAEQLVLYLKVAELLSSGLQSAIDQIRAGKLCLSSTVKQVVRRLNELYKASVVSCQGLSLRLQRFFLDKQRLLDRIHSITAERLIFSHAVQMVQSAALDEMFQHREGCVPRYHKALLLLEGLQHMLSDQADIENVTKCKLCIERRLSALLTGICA
# [4] = GAK (O14976), direction down, experiment wp117
# [5] = GAK (O14976), experiment wp168, down
structure (smiles),measurement,setting,value
"Cc1ccc(NC(=O)c2cccc(C(F)(F)F)c2)cc1N1Cc2cnc(Nc3ccc(N4CCN(Cc5cn(CCCCCOc6cccc7c6C(=O)N(C6CCC(=O)NC6=O)C7=O)nn5)CC4)nc3)nc2N(C)C1=O (stereo not shown) [DB0646, N-(3-(7-((6-(4-((1-(5-((2-(2,6-Dioxopiperidin-3-yl)-1,3-dioxoisoindolin-4-yl)oxy)pentyl)-1H-1,2,3-triazol-4-yl)methyl)piperazin-1-v)pyridin-3-yl)amino)-1-methyl-2-oxo-1,4-dihydropyrimido[4,5-d]pyrimidin-3(2H)-yl)-4-methylphenyl)-3-(trifluoromethyl)benzamide]",logFC of GAK (O14976),"[1]; Experiment wp045, down",−0.6424
same,logFC of GAK (O14976),"[1]; Experiment wp103, down",−0.4684
same,logFC of GAK (O14976),"[1]; Experiment wp105, down",−0.3367
same,logFC of GAK (O14976),"[1]; Experiment wp107, down",−0.5564
same,logFC of GAK (O14976),"[1]; Experiment wp114, down",−0.3391
same,logFC of GAK (O14976),"[1]; Experiment wp117, down",−0.5868
same,logFC of GAK (O14976),"[1]; Experiment wp152, down",−0.5117
same,logFC of GAK (O14976),"[1]; Experiment wp160, 4 hr, down",−0.4714
same,logFC GAK,"[1]; GAK (O14976), direction down, experiment wp045",−0.6424
same,logFC GAK,"[1]; GAK (O14976), direction down, experiment wp103",−0.4684
same,logFC GAK,"[1]; GAK (O14976), direction down, experiment wp105",−0.3367
same,logFC GAK,"[1]; GAK (O14976), direction down, experiment wp107",−0.5564
same,logFC GAK,"[1]; GAK (O14976), direction down, experiment wp114",−0.3391
same,logFC GAK,[1]; [4],−0.5868
same,logFC GAK,"[1]; GAK (O14976), direction down, experiment wp152",−0.5117
same,logFC GAK,"[1]; GAK (O14976), direction down, experiment wp160, 4 hr",−0.4714
same,logFC GAK,"[1]; GAK (O14976), direction down, experiment wp160, 8 hr",−0.8149
same,logFC GAK,"[1]; GAK (O14976), experiment wp160, 8 hr, degrader vs DMSO, down",−0.8149
same,logFC GAK,"[1]; GAK (O14976), experiment wp172, down",−0.345
same,logFC GAK,"[1]; GAK, accession O14976, experiment wp172, direction of change down",−0.345
same,logFC of SIK2,[2]; experiment wp045,−0.638
same,logFC of SIK2,[2]; experiment wp107,−0.5933
same,logFC of SIK2,[2]; experiment wp114,−0.4347
same,logFC of SIK2,[2]; experiment wp117,−0.4315
same,logFC of SIK2,"[2]; experiment wp160, 4 hr",−0.5421
same,logFC of SIK2,"[2]; experiment wp160, 8 hr",−0.5707
same,logFC SIK2 (Q9H0K1),[2]; Experiment wp114,−0.4347
same,logFC SIK2,[2]; experiment wp045,−0.638
same,logFC SIK2 (Q9H0K1),[2]; experiment wp107,−0.5933
same,logFC SIK2 (Q9H0K1),[2]; experiment wp117,−0.4315
same,logFC SIK2 (Q9H0K1),"[2]; experiment wp160, 4 hr",−0.5421
same,logFC SIK2 (Q9H0K1),"[2]; experiment wp160, 8 hr",−0.5707
same,logFC,[3]; 4 hr,−0.3412
same,logFC,[3]; 8 hr,−0.3989
same,logFC ULK1,"[3]; experiment wp160, 4 hr",−0.3412
same,logFC ULK1,"[3]; experiment wp160, 8 hr",−0.3989
Cc1ccc(NC(=O)c2cccc(C(F)(F)F)c2)cc1N1Cc2cnc(Nc3ccc(N4CCN(CCCOc5cccc6c5C(=O)N(C5CCC(=O)NC5=O)C6=O)CC4)nc3)nc2N(C)C1=O (stereo not shown) [DB0662],logFC GAK,"[1]; GAK (O14976), direction down, experiment wp168",−0.4373
same,logFC GAK,[1]; [5],−0.4373
same,logFC of SIK2,[2]; experiment wp168,−0.777
same,logFC SIK2 (Q9H0K1),[2]; experiment wp168,−0.777
same,logFC,[3],−0.3582
same,logFC ULK1,[3]; experiment wp168,−0.3582
Cc1ccc(NC(=O)c2cccc(C(F)(F)F)c2)cc1N1Cc2cnc(Nc3ccc(N4CCN(CCCCC(=O)N[C@H](C(=O)N5C[C@H](O)C[C@H]5C(=O)N[C@@H](C)c5ccc(-c6scnc6C)cc5)C(C)(C)C)CC4)nc3)nc2N(C)C1=O [DB1113],logFC GAK,[1]; [5],−1.029
same,logFC GAK,"[1]; GAK, accession O14976, experiment wp168, direction of change down",−1.029
same,logFC of SIK2,[2]; experiment wp168,−0.7296
same,logFC SIK2 (Q9H0K1),[2]; experiment wp168,−0.7296
same,logFC,[3],−0.352
same,logFC ULK1,[3]; experiment wp168,−0.352
Cc1ncsc1-c1ccc([C@H](C)NC(=O)[C@@H]2C[C@@H](O)CN2C(=O)[C@@H](NC(=O)CCOCCOCCN2CCN(c3ccc(Nc4ncc(Cl)c(Nc5ccccc5S(=O)(=O)C(C)C)n4)cc3)CC2)C(C)(C)C)cc1 [FMF.06.098.1],logFC of GAK (O14976),"[1]; Experiment wp108, down",−0.4156
same,logFC of GAK (O14976),"[1]; Experiment wp131, down",−0.3469
same,logFC GAK,"[1]; GAK (O14976), direction down, experiment wp108",−0.4156
same,logFC GAK,"[1]; GAK (O14976), direction down, experiment wp131",−0.3469
same,logFC of SIK2,[2]; experiment wp114,−0.4985
same,logFC of SIK2,[2]; experiment wp131,−0.602
same,logFC SIK2 (Q9H0K1),[2]; Experiment wp114,−0.4985
same,logFC SIK2 (Q9H0K1),[2]; experiment wp131,−0.602
same,logFC,[3],−0.688 and −0.9629
same,logFC ULK1,[3]; experiment wp108,−0.688
same,logFC ULK1,[3]; experiment wp131,−0.9629
"Cc1ncsc1-c1ccc([C@H](C)NC(=O)[C@@H]2C[C@@H](O)CN2C(=O)[C@@H](NC(=O)CCCCCN2CCN(c3ccc(Nc4ncc5scc(-c6cccc(NS(C)(=O)=O)c6)c5n4)cc3)CC2)C(C)(C)C)cc1 [RSS0680, (2S,4R)-1-((S)-3,3-Dimethyl-2-(6-(4-(4-((7-(3-(methylsulfonamido)phenyl)thieno[3,2-d]pyrimidin-2-yl)amino)phenyl)piperazin-1-yl)hexanamido)butanoyl)-4-hydroxy-N—((S)-1-(4-(4-methylthiazol-5yl)phenyl)ethyl)pyrrolidine-2-carboxamide]",logFC of GAK (O14976),"[1]; Experiment wp080, down",−0.7773
same,logFC of GAK (O14976),"[1]; Experiment wp117, down",−0.6853
same,logFC GAK,"[1]; GAK (O14976), direction down, experiment wp080",−0.7773
same,logFC GAK,[1]; [4],−0.6853
same,logFC of SIK2,[2]; experiment wp080,−0.6986
same,logFC of SIK2,[2]; experiment wp117,−0.7184
same,logFC SIK2,[2]; experiment wp080,−0.6986
same,logFC SIK2 (Q9H0K1),[2]; experiment wp117,−0.7184
same,logFC,[3],−0.4057 and −0.4996
same,logFC ULK1,[3]; experiment wp080,−0.4057
same,logFC ULK1,[3]; experiment wp117,−0.4996
